{"source": "patent US12371748B2", "about": "“Genetic markers for predicting responsiveness to therapy with HDL-raising or HDL mimicking agent” (Hoffmann-La Roche Inc., priority 2014, dated 2025)", "tested_on": "patients with evidence of coronary artery disease", "experiment": "dal-PLAQUE-2: change in carotid intima-media thickness (B-mode ultrasound) by ADCY9 genotype", "assay_type": "in vivo, human", "text": "The dal-PLAQUE-2 study (Tardif J C et al, Circulation Cardiovascular imaging 2011; 4:319-33) was a phase 3b multicenter, double-blind, randomized, placebo-controlled, parallel group trial designed to evaluate the effect of dalcetrapib on atherosclerotic disease progression in patients with evidence of coronary artery disease and carotid intima media thickness of at least 0.65 mm in the far wall of the common carotid arteries, as assessed by B-mode ultrasonography. A total of 931 patients were randomized to receive dalcetrapib 600 mg daily or matching placebo with intended treatment duration of 24 months. However, the trial was terminated prematurely concurrent with the termination of dal OUTCOMES (the latter due to futility). Patients continued study medication until they returned for follow-up carotid imaging at 12 months. Carotid B-mode ultrasound recordings at baseline, month 6, and month 12 were analyzed centrally at the core laboratory of the Montreal Heart Institute. Intima-media thickness (IMT) was analyzed on the far wall of the common carotid arteries. A segment of 10 mm in length of the common carotid artery was analyzed on serial examinations using an automated edge detection software (Carotid Analyzer, Medical Imaging Applications, Coralville, Iowa). Among the 411 participants in the dal-PLAQUE-2 trial who consented to the genetic study, 386 had imaging measures at baseline, 6 months and 12 months (194 and 192 in the dalcetrapib and placebo arms respectively). DNA was extracted from whole blood. The research protocols were approved by the relevant institutional review boards or ethics committees and all human participants gave written informed consent.\nAll acquired carotid ultrasound recordings were analyzed at the core laboratory of the Montreal Heart Institute by experienced technicians supervised by a physician. Images were required to meet quality and inclusion and exclusion criteria for eligibility prior to random assignment to study treatment. The methods for carotid intima-media thickness analysis included side-by-side viewing of baseline and follow-up studies.\nCarotid arterial wall segments were assessed in a longitudinal view, perpendicular to the ultrasound beam, with a horizontal display of the arterial image in order to view the interfaces between blood and vascular structures on the longest possible segment. The localization of the end of the common carotid artery was used as the landmark in repositioning and analyzing comparative length of segments in baseline and follow-up studies. Intima-media thickness was analyzed on the far wall of the right and left common carotid arteries, to reduce variability of measurements. The average of the mean intima-media thickness values of the right and left common carotid arteries was used. A matched segment of 10 mm in length of the common carotid artery was analyzed on serial examinations (baseline, 6 months and 12 months), starting 5 mm proximal to the carotid bifurcation. The edge detection software Carotid Analyzer (Medical Imaging Applications LLC, Coralville, Iowa) was used to analyze intima-media thickness using the automated option. Two sets of carotid artery borders were identified: First, the media-adventitia borders were determined and verified by the reader. When required, their locations were semi-automatically modified to the correct location. When these borders were approved, the lumen-intima boundaries were automatically detected using the media-adventitia borders for guidance. Frames from looped sequences of intima-media thickness were selected for reading, and poor quality outlier frames were removed from the analysis when required.\nFor the dal-Plaque-2 population, mixed regression models for repeated measures analysis were tested in SAS software. The dal-Plaque-2 tested endpoint was the mean of IMT measures of common carotid arteries at the 6-month and the 12-month visits, using the baseline measure as covariate. […]"}
{"smiles": "CCC(CC)CC1(C(=O)Nc2ccccc2SC(=O)C(C)C)CCCCC1", "note": "[dalcetrapib, thioisobutyric acid S-(2-{[1-(2-ethyl-butyl)-cyclohexanecarbonyl]-amino}-phenyl) ester]", "values": [{"measurement": "Change from baseline in carotid intima-media thickness, Mean", "setting": "rs1967309, heterozygotes, M12", "value": "−0.001", "unit": "mm"}, {"measurement": "Change from baseline in carotid intima-media thickness, Mean", "setting": "rs1967309, homozygotes for major allele, M06", "value": 0.006, "unit": "mm"}, {"measurement": "Change from baseline in carotid intima-media thickness, Mean", "setting": "rs1967309, homozygotes for major allele, M12", "value": 0.005, "unit": "mm"}, {"measurement": "Change from baseline in carotid intima-media thickness, Mean", "setting": "rs1967309, homozygotes for minor allele, M12", "value": "−0.021", "unit": "mm"}, {"measurement": "change in IMT after 12 months of treatment", "setting": "rs1967309 AA homozygotes", "value": "−0.021±0.083", "unit": "mm"}, {"measurement": "change in IMT after 12 months of treatment", "setting": "rs1967309 GG homozygotes", "value": "+0.005±0.042 mm"}, {"measurement": "change in IMT after 12 months of treatment", "setting": "rs1967309 heterozygotes", "value": "−0.001±0.048", "unit": "mm"}, {"measurement": "Change from baseline in carotid intima-media thickness, Mean", "setting": "rs2238448, heterozygotes, M06", "value": "−0.003", "unit": "mm"}, {"measurement": "Change from baseline in carotid intima-media thickness, Mean", "setting": "rs2238448, heterozygotes, M12", "value": 0.000, "unit": "mm"}, {"measurement": "Change from baseline in carotid intima-media thickness, Mean", "setting": "rs2238448, homozygotes for major allele, M06", "value": 0.011, "unit": "mm"}, {"measurement": "Change from baseline in carotid intima-media thickness, Mean", "setting": "rs2238448, homozygotes for major allele, M12", "value": 0.009, "unit": "mm"}, {"measurement": "Change from baseline in carotid intima-media thickness, Mean", "setting": "rs2238448, homozygotes for minor allele, M06", "value": "−0.010", "unit": "mm"}, {"measurement": "Change from baseline in carotid intima-media thickness, Mean", "setting": "rs2238448, homozygotes for minor allele, M12", "value": "−0.027", "unit": "mm"}, {"measurement": "change in IMT after 12 months of treatment", "setting": "rs2238448 CC (common allele homozygotes)", "value": "+0.009±0.038 mm"}, {"measurement": "change in IMT after 12 months of treatment", "setting": "rs2238448 TT (minor allele homozygotes)", "value": "−0.027±0.079", "unit": "mm"}, {"measurement": "change in IMT after 12 months of treatment", "setting": "rs2238448 heterozygotes", "value": "0.000±0.048", "unit": "mm"}, {"measurement": "Change from baseline in carotid intima-media thickness, Mean", "setting": "rs2239310, heterozygotes, M06", "value": "−0.004", "unit": "mm"}, {"measurement": "Change from baseline in carotid intima-media thickness, Mean", "setting": "rs2239310, heterozygotes, M12", "value": "−0.003", "unit": "mm"}, {"measurement": "Change from baseline in carotid intima-media thickness, Mean", "setting": "rs2239310, homozygotes for major allele, M06", "value": 0.004, "unit": "mm"}, {"measurement": "Change from baseline in carotid intima-media thickness, Mean", "setting": "rs2239310, homozygotes for major allele, M12", "value": 0.001, "unit": "mm"}, {"measurement": "Change from baseline in carotid intima-media thickness, Mean", "setting": "rs2239310, homozygotes for minor allele, M06", "value": "−0.001", "unit": "mm"}, {"measurement": "Change from baseline in carotid intima-media thickness, Mean", "setting": "rs2239310, homozygotes for minor allele, M12", "value": "−0.002", "unit": "mm"}, {"measurement": "Change from baseline in carotid intima-media thickness, Mean", "setting": "rs2283497, heterozygotes, M06", "value": "−0.001", "unit": "mm"}, {"measurement": "Change from baseline in carotid intima-media thickness, Mean", "setting": "rs2283497, heterozygotes, M12", "value": 0.005, "unit": "mm"}, {"measurement": "Change from baseline in carotid intima-media thickness, Mean", "setting": "rs2283497, homozygotes for minor allele, M06", "value": "−0.005", "unit": "mm"}, {"measurement": "Change from baseline in carotid intima-media thickness, Mean", "setting": "rs2283497, homozygotes for minor allele, M12", "value": "−0.006", "unit": "mm"}, {"measurement": "Change from baseline in carotid intima-media thickness, Mean", "setting": "rs2531967, heterozygotes, M06", "value": "−0.008", "unit": "mm"}, {"measurement": "Change from baseline in carotid intima-media thickness, Mean", "setting": "rs2531967, heterozygotes, M12", "value": "−0.006", "unit": "mm"}, {"measurement": "Change from baseline in carotid intima-media thickness, Mean", "setting": "rs2531967, homozygotes for minor allele, M06", "value": "−0.007", "unit": "mm"}, {"measurement": "Change from baseline in carotid intima-media thickness, Mean", "setting": "rs2531967, homozygotes for minor allele, M12", "value": "−0.031", "unit": "mm"}, {"measurement": "Change from baseline in carotid intima-media thickness, Mean", "setting": "rs2531971, heterozygotes, M06", "value": "−0.002", "unit": "mm"}, {"measurement": "Change from baseline in carotid intima-media thickness, Mean", "setting": "rs2531971, heterozygotes, M12", "value": 0.002, "unit": "mm"}, {"measurement": "Change from baseline in carotid intima-media thickness, Mean", "setting": "rs2531971, homozygotes for major allele, M06", "value": 0.008, "unit": "mm"}, {"measurement": "Change from baseline in carotid intima-media thickness, Mean", "setting": "rs2531971, homozygotes for major allele, M12", "value": "−0.002", "unit": "mm"}, {"measurement": "Change from baseline in carotid intima-media thickness, Mean", "setting": "rs2531971, homozygotes for minor allele, M06", "value": "−0.010", "unit": "mm"}, {"measurement": "Change from baseline in carotid intima-media thickness, Mean", "setting": "rs2531971, homozygotes for minor allele, M12", "value": "−0.016", "unit": "mm"}, {"measurement": "Change from baseline in carotid intima-media thickness, Mean", "setting": "rs3730119, heterozygotes, M06", "value": "−0.002", "unit": "mm"}, {"measurement": "Change from baseline in carotid intima-media thickness, Mean", "setting": "rs3730119, heterozygotes, M12", "value": 0.004, "unit": "mm"}, {"measurement": "Change from baseline in carotid intima-media thickness, Mean", "setting": "rs3730119, homozygotes for minor allele, M06", "value": 0.006, "unit": "mm"}, {"measurement": "Change from baseline in carotid intima-media thickness, Mean", "setting": "rs3730119, homozygotes for minor allele, M12", "value": "−0.028", "unit": "mm"}, {"measurement": "Change from baseline in carotid intima-media thickness, Mean", "setting": "rs4786454, heterozygotes, M06", "value": "−0.007", "unit": "mm"}, {"measurement": "Change from baseline in carotid intima-media thickness, Mean", "setting": "rs4786454, heterozygotes, M12", "value": "−0.005", "unit": "mm"}, {"measurement": "Change from baseline in carotid intima-media thickness, Mean", "setting": "rs4786454, homozygotes for minor allele, M06", "value": "−0.020", "unit": "mm"}, {"measurement": "Change from baseline in carotid intima-media thickness, Mean", "setting": "rs4786454, homozygotes for minor allele, M12", "value": "−0.049", "unit": "mm"}, {"measurement": "Change from baseline in carotid intima-media thickness, Mean", "setting": "rs8049452, heterozygotes, M06", "value": "−0.002", "unit": "mm"}, {"measurement": "Change from baseline in carotid intima-media thickness, Mean", "setting": "rs8049452, heterozygotes, M12", "value": 0.003, "unit": "mm"}, {"measurement": "Change from baseline in carotid intima-media thickness, Mean", "setting": "rs8049452, homozygotes for major allele, M06", "value": "−0.008", "unit": "mm"}, {"measurement": "Change from baseline in carotid intima-media thickness, Mean", "setting": "rs8049452, homozygotes for major allele, M12", "value": "−0.013", "unit": "mm"}, {"measurement": "Change from baseline in carotid intima-media thickness, Mean", "setting": "rs8049452, homozygotes for minor allele, M06", "value": 0.020, "unit": "mm"}, {"measurement": "Change from baseline in carotid intima-media thickness, Mean", "setting": "rs8049452, homozygotes for minor allele, M12", "value": 0.006, "unit": "mm"}, {"measurement": "Change from baseline in carotid intima-media thickness, Mean", "setting": "rs8061182, heterozygotes, M06", "value": 0.000, "unit": "mm"}, {"measurement": "Change from baseline in carotid intima-media thickness, Mean", "setting": "rs8061182, heterozygotes, M12", "value": 0.007, "unit": "mm"}, {"measurement": "Change from baseline in carotid intima-media thickness, Mean", "setting": "rs8061182, homozygotes for minor allele, M06", "value": 0.016, "unit": "mm"}]}
